According to the supplement of paper PMC10307832:

Experiments:
Test in all cases: relative viability (nuclei count vs DMSO), 5 days (fraction); higher = more cells survive
[1] = test system: BEN
Procedure, shortened: (§1)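 Lung cancer cell lines were pin-tool dosed in 1536-well plates on the day after seeding, with either a lone drug or a fixed anchor-drug dose plus five library-drug doses (not always all listed) in √10 steps. Nuclei were counted on 4× images after 5 days. Relative viability is the ratio of treated-well to vehicle-well nuclei counts, with each value a median of duplicate plates.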

[2] = test system: EPLC-272H
Procedure, shortened: as §1

[3] = test system: HCC-827
Procedure, shortened: as §1

[4] = test system: HOP-62
Procedure, shortened: as §1

[5] = test system: LU99A
Procedure, shortened: as §1

[6] = test system: LXF-289
Procedure, shortened: as §1

[7] = test system: NCI-H1437
Procedure, shortened: as §1

[8] = test system: NCI-H1666
Procedure, shortened: as §1

[9] = test system: NCI-H1915
Procedure, shortened: as §1

[10] = test system: NCI-H2170
Procedure, shortened: as §1

[11] = test system: NCI-H2228
Procedure, shortened: as §1

[12] = test system: NCI-H2342
Procedure, shortened: as §1

[13] = test system: NCI-H2347
Procedure, shortened: as §1

[14] = test system: NCI-H23
Procedure, shortened: as §1

[15] = test system: NCI-H322M
Procedure, shortened: as §1

[16] = test system: NCI-H358
Procedure, shortened: as §1

[17] = test system: NCI-H441
Procedure, shortened: as §1

[18] = test system: NCI-H522
Procedure, shortened: as §1

[19] = test system: NCI-H647
Procedure, shortened: as §1

[20] = test system: NCI-H650
Procedure, shortened: as §1

[21] = test system: SK-MES-1
Procedure, shortened: as §1

[22] = test system: SW 1573
Procedure, shortened: as §1

## Oc1nc(-c2ccc(C(F)(F)F)cc2)nc2c1CSCC2 [XAV939] + Nc1nc2[nH]cc(CCc3ccc(C(=O)N[C@@H](CCC(=O)O)C(=O)O)cc3)c2c(=O)[nH]1 [Pemetrexed] (partner 0.2 µM)
[1]; first compound 0.08 µM
  relative viability: 0.651
[1]; first compound 0.253 µM
  relative viability: 0.727
[1]; first compound 0.8 µM
  relative viability: 0.817
[1]; first compound 2.53 µM
  relative viability: 0.731
[2]; first compound 0.08 µM
  relative viability: 0.312
[2]; first compound 0.253 µM
  relative viability: 0.238
[2]; first compound 0.8 µM
  relative viability: 0.511
[2]; first compound 2.53 µM
  relative viability: 0.308
[3]; first compound 0.08 µM
  relative viability: 0.275
[3]; first compound 0.253 µM
  relative viability: 0.268
[3]; first compound 0.8 µM
  relative viability: 0.254
[3]; first compound 2.53 µM
  relative viability: 0.245
[4]; first compound 0.08 µM
  relative viability: 0.347
[4]; first compound 0.253 µM
  relative viability: 0.287
[4]; first compound 0.8 µM
  relative viability: 0.292
[4]; first compound 2.53 µM
  relative viability: 0.215
[5]; first compound 0.08 µM
  relative viability: 0.19
[5]; first compound 0.253 µM
  relative viability: 0.167
[5]; first compound 0.8 µM
  relative viability: 0.184
[5]; first compound 2.53 µM
  relative viability: 0.181
[6]; first compound 0.08 µM
  relative viability: 0.886
[6]; first compound 0.253 µM
  relative viability: 0.916
[6]; first compound 0.8 µM
  relative viability: 0.957
[6]; first compound 2.53 µM
  relative viability: 0.895
[7]; first compound 0.08 µM
  relative viability: 0.294
[7]; first compound 0.253 µM
  relative viability: 0.272
[7]; first compound 0.8 µM
  relative viability: 0.326
[7]; first compound 2.53 µM
  relative viability: 0.276
[8]; first compound 0.08 µM
  relative viability: 0.822
[8]; first compound 0.253 µM
  relative viability: 0.865
[8]; first compound 0.8 µM
  relative viability: 0.864
[8]; first compound 2.53 µM
  relative viability: 0.925
[9]; first compound 0.08 µM
  relative viability: 0.454
[9]; first compound 0.253 µM
  relative viability: 0.466
[9]; first compound 0.8 µM
  relative viability: 0.531
[9]; first compound 2.53 µM
  relative viability: 0.486
[10]; first compound 0.08 µM
  relative viability: 0.255
[10]; first compound 0.253 µM
  relative viability: 0.246
[10]; first compound 0.8 µM
  relative viability: 0.265
[10]; first compound 2.53 µM
  relative viability: 0.258
[11]; first compound 0.08 µM
  relative viability: 0.332
[11]; first compound 0.253 µM
  relative viability: 0.341
[11]; first compound 0.8 µM
  relative viability: 0.29
[11]; first compound 2.53 µM
  relative viability: 0.271
[12]; first compound 0.08 µM
  relative viability: 0.784
[12]; first compound 0.253 µM
  relative viability: 0.662
[12]; first compound 0.8 µM
  relative viability: 0.719
[12]; first compound 2.53 µM
  relative viability: 0.426
[13]; first compound 0.08 µM
  relative viability: 0.456
[13]; first compound 0.253 µM
  relative viability: 0.41
[13]; first compound 0.8 µM
  relative viability: 0.435
[13]; first compound 2.53 µM
  relative viability: 0.42
[14]; first compound 0.08 µM
  relative viability: 0.727
[14]; first compound 0.8 µM
  relative viability: 0.543
[14]; first compound 2.53 µM
  relative viability: 0.52
[15]; first compound 0.08 µM
  relative viability: 0.585
[15]; first compound 0.253 µM
  relative viability: 0.561
[15]; first compound 0.8 µM
  relative viability: 0.548
[15]; first compound 2.53 µM
  relative viability: 0.512
[16]; first compound 0.08 µM
  relative viability: 0.168
[16]; first compound 0.253 µM
  relative viability: 0.162
[16]; first compound 0.8 µM
  relative viability: 0.165
[16]; first compound 2.53 µM
  relative viability: 0.171
[17]; first compound 0.08 µM
  relative viability: 0.243
[17]; first compound 0.253 µM
  relative viability: 0.242
[17]; first compound 0.8 µM
  relative viability: 0.261
[17]; first compound 2.53 µM
  relative viability: 0.231
[18]; first compound 0.08 µM
  relative viability: 1.04
[18]; first compound 0.253 µM
  relative viability: 0.88
[18]; first compound 0.8 µM
  relative viability: 0.964
[18]; first compound 2.53 µM
  relative viability: 0.985
[19]; first compound 0.08 µM
  relative viability: 0.168
[19]; first compound 0.253 µM
  relative viability: 0.179
[19]; first compound 0.8 µM
  relative viability: 0.166
[19]; first compound 2.53 µM
  relative viability: 0.146
[20]; first compound 0.08 µM
  relative viability: 0.973
[20]; first compound 0.253 µM
  relative viability: 1
[20]; first compound 0.8 µM
  relative viability: 0.96
[20]; first compound 2.53 µM
  relative viability: 0.816
[21]; first compound 0.08 µM
  relative viability: 1.01
[21]; first compound 0.253 µM
  relative viability: 0.778
[21]; first compound 0.8 µM
  relative viability: 0.835
[21]; first compound 2.53 µM
  relative viability: 0.768
[22]; first compound 0.08 µM
  relative viability: 0.876
[22]; first compound 0.253 µM
  relative viability: 0.659
[22]; first compound 0.8 µM
  relative viability: 0.816
[22]; first compound 2.53 µM
  relative viability: 0.731
